# How the values were obtained:
# [1] = 4-CPA levels in Eucalyptus grandis cuttings by LC-MS (translocation, release from conjugates); assay type: in vivo
# Experimental: E. grandis cuttings were harvested at time 0, 1, 6 and 24 hours after the indicated treatments. The cutting foliage and basal ends (approximately 2-3 cm of the base) were harvested separately using a sharp pruning shear, rinsed well under a tap water stream, wiped with a paper towel and frozen in liquid nitrogen. Then, each sample was grinded well while still frozen, using an IKA lab mill. For the analysis, 3-6 technical replicates, weight 190-240 mg, were taken from each sample into fresh 2 ml Eppendorf™ tubes. Auxins were extracted in 1 ml of cold 79% isopropanol, 20% methanol and 1% acetic acid solution containing 20 ng of […] IBA and IAA as internal standards. The tubes were vortexed for 1 hr at 4° C. and then centrifuged at 14,000 RPM for 15 minutes. The supernatants were transferred to fresh 2 ml Eppendorf™ tubes. Two more extraction cycles were performed using 0.5 ml of extraction solvent without the internal standards. The tubes containing the collected supernatants were placed in a SpeedVac™ centrifuge for solvent evaporation under room temperature. The pellets were dissolved in pre-chilled 200 μl of 50% methanol, centrifuged, and the supernatant was filtered through […] PDFV syringe filters 13 mm into fresh 2 ml tubes. The ready extractions were kept under −20° C. till analyzed.
# LC-MS analyses were conducted using UPLC-Triple Quadrupole-MS device (Waters Xevo TQ MS). Separation was performed on Waters Acquity™ UPLC BEH C18 1.7 μm 2.1×100 mm column with a VanGuard™ precolumn (BEH C18 1.7 μm 2.1×5 mm). Chromatographic and MS parameters were as follows: the mobile phase consisted of water (phase A) and acetonitrile (phase B), both containing 0.1% formic acid in the gradient elution mode. The solvent gradient program was as follows: […]
# The flow rate was 0.3 ml/minute, and the column temperature was kept at 35° C. The analyses were performed using the ESI source in negative ion mode with the following settings: capillary voltage 3.1 kV, cone voltage 30 V, desolvation temperature 400° C., desolvation gas flow 565 liters/hour, source temperature 140° C. Quantitation was performed using MRM acquisition by monitoring the 185/127, 185/141, RT=5.77, dwell time of 161 msec for each transition. Calibration curve was used to calculate the concentration of 4-CPA. Acquisition of LC-MS data was performed under MassLynx™ V4.1 software (Waters).
# In order to determine whether trend observed in Arabidopsis occurs also in eucalyptus cuttings, the 4-CPA translocation directionality was first examined by treating cuttings with 4-CPA (100 μM) either by submergence of the cutting base or by spraying the leaves. At several time points (i.e. 0, 1, 6 and 24 hours), the cutting base (bottom 2 cm) and the leaves were separately extracted (with isopropanol/methanol/acetic acid solution) and 4-CPA levels were determined by HPLC-MS/MS.
# In order to evaluate the rate of conjugates hydrolysis, 4-CPA levels were monitored following treatment with Compounds 1s and 1t. Cuttings were treated with IBA alone (by submerging the cutting base), or with IBA and Compound 1s or it by submerging the cutting base and by spraying the leaves with Compound 1s or 1t. Cutting bases (bottom 2 cm) and leaves were separately extracted 6, 24 and 48 hours after treatment and hormones levels were determined by HPLC-MS/MS.
# [2] = tested on: avocado rootstock cuttings; assay: rooting of avocado rootstock cuttings; assay type: in vivo; settings: vc51 rootstock, IBA with compound
# How it was run: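 Green cuttings of avocado rootstock (including hard-to-root VC801) were treated with auxin conjugates in the presence of IBA and scored for rooting.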
# [3] = 100 μM 4-CPA applied to the cutting base
structure (smiles),measurement,setting,value
"O=C(O)COc1ccc(Cl)cc1 [Compound 4-CPA, 4-chloro-phenoxyacetic acid, reference compound]",4-CPA level locally (leaves) and in the cutting base,[1]; 100 μM 4-CPA applied to leaves by spraying,about 150 ng/gram
same,4-CPA level in leaves,[1]; [3],less than 10 ng/gram
same,4-CPA level in the cutting base (local),[1]; [3],about 275 ng/gram
same,time at which 4-CPA levels peaked following application to the leaves,[1]; 100 μM 4-CPA sprayed on leaves,6 h
same,4-CPA levels throughout the measurements,[1]; treatment with free 4-CPA or with conjugate,250-300 ng/gram
"COC(=O)[C@@H](Cc1c[nH]c2ccccc12)NC(=O)COc1ccc(Cl)cc1 [Compound 1s, 4-CPA-D-Trp]","roots per cutting of green avocado branches compared with etiolated branches treated with IBA, in words",[2],considerably more roots per cutting
same,"rooting success rate of green avocado branches, in words",[2]; compared with IBA alone,considerably enhanced the rooting success rate

# — patent US20220030866A1, “CONJUGATES OF AUXIN ANALOGS” (The State of Israel, Ministry of Agriculture & Rural …, priority 2019, published 2022)
